# Results taken from paper PMC7935272 (PLoS Pathogens, 2021).
# Where “and” joins values, the source holds several entries; their conditions need not be identical. Equal values may be shown once. Entries after “also recorded” stand apart in the source; their conditions may differ.
# What was measured:
# MeV L = target: T1, MeV L (Measles virus, UniProt P12576); experiment: MeV minigenome dose-response assay, L WT; type: cell-based; settings: 40 h, ERDRP-0519 0.005 µM; L WT; Figure 1D; read-out: minigenome activity, individual repeat
# T1 construct: expressed in transfected cells; host or cells: BSR-T7/5
# Vero-hSLAM cells = experiment: in vitro; type: cell-based, African green monkey
# Protocol: (§1) To determine cytotoxic concentrations Vero-hSLAM cells were plated in 96 well plates (1.1 × 10^4 per well) and incubated with three-fold serial dilutions of compound. After incubation of uninfected cells for 72 hours, PrestoBlue substrate (Invitrogen) was added to quantify cell metabolic activity as described. Signal was measured using a BioTek H1 synergy multimode microplate reader. Where applicable, cytotoxic concentrations (CC50) were calculated based on four-parameter variable slope regression modeling.
# in vitro = type: cell-based, African green monkey; settings: African green monkey; Vero-hSLAM, 72 hours
# Protocol: as §1
# WT MeV L-P complexes = WT MeV L-P complexes (Measles virus, UniProt Q9WMB3); experiment: Primer extension RdRP assay, GTP only (first nucleotide), L WT; type: biochemical; settings: 5 h, read-out: first nucleotide incorporation signal (FIG 4D densitometry, first row = 100)
# [1] = test system: MeV L-P complexes L T776A; type: biochemical; settings: primer extension, L T776A vs WT
# MeV P-L complexes = MeV P-L complexes (Measles virus, UniProt Q9WMB3); experiment: In vitro RdRP assay on 25-nt RSV promoter template (de novo initiation and back-priming); settings: 25-mer RSV promoter template
# RSV L = RSV L (Human respiratory syncytial virus A, UniProt P28887); experiment: Biolayer interferometry, RSV L specificity control; type: binding; settings: for steady-state BLI sensor response: S7 C
# [2] = test system: MeV mRNA transcripts (P, H, L); experiment: qRT-PCR of MeV primary transcription in infected Vero-hSLAM cells; type: cell-based; settings: for Transcription gradient, H mRNA, Predicted (LS) mean 2 / Transcription gradient, L mRNA, Predicted (LS) mean 2 / Transcription gradient, P mRNA, Predicted (LS) mean 2: Figure 3I, N2 3
# Protocol: Total RNA was extracted four hours after infection using Trizol and subjected to reverse transcription using either oligo-dT primers. Subsequent qPCR used primer pairs specific for MeV P mRNA, MeV H mRNA, MeV L mRNA, or human GAPDH mRNA, respectively. qPCR was performed using an Applied Biosystems 7500 Real-Time PCR System with a StepOnePlus Real-Time PCR System. Samples were normalized for GAPDH.
# [3] = test system: canine distemper virus (CDV); settings: oral treatment initiated at first day of viremia; cited from earlier work
# MeV L full length = MeV L full length (Measles virus, UniProt Q9WMB3); experiment: Biolayer interferometry, full-length MeV P-L; type: binding; settings: for S5 A BLI sensorgram response / S5 D BLI response versus compound conc.: MeV L full length; for steady-state BLI sensor response: S7 A
# MeV = experiment: Antiviral dose-response assay, MeV-NanoPEST reporter virus in Vero-hSLAM cells
# [4] = test system: MeV L-P complexes L H589Y; type: biochemical; settings: de novo initiation, L H589Y vs WT
structure (smiles),measurement,setting,value
"Cn1nc(C(F)(F)F)cc1C(=O)Nc1ccc(S(=O)(=O)N2CCCC[C@H]2CCN2CCOCC2)cc1 [ERDRP-0519, S(=O)(=O)(N1[C@H](CCN2CCOCC2)CCCC1)c1ccc(NC(=O)c2n(C)nc(C(F)(F)F)c2)cc1]",remaining activity at 0.005 µM,MeV L,97%
same,"Cytotoxicity, normalized metabolic activity (Figure 5B)",Vero-hSLAM cells; cpd concentration 0.045725,92.6189 and 91.5198 and 89.1889
same,"Cytotoxicity, normalized metabolic activity (Figure 5B)",Vero-hSLAM cells; cpd concentration 0.137174,93.2443 and 94.6845 and 97.0722
same,"Cytotoxicity, normalized metabolic activity (Figure 5B)",Vero-hSLAM cells; cpd concentration 0.411523,98.6261 and 97.1101 and 101.469
same,"Cytotoxicity, normalized metabolic activity (Figure 5B)",Vero-hSLAM cells; cpd concentration 1.23457,100.919 and 98.2092 and 94.5139
same,"Cytotoxicity, normalized metabolic activity (Figure 5B)",Vero-hSLAM cells; cpd concentration 3.7037,98.683 and 65.7665 and 99.5736
same,"Cytotoxicity, normalized metabolic activity (Figure 5B)",Vero-hSLAM cells; cpd concentration 11.1111,96.5984 and 96.9017 and 98.6451
same,"Cytotoxicity, normalized metabolic activity (Figure 5B)",Vero-hSLAM cells; cpd concentration 33.3333,105.751 and 104.652 and 106.244
same,"Cytotoxicity, normalized metabolic activity (Figure 5B)",Vero-hSLAM cells; cpd concentration 100,82.5753 and 96.0868 and 96.0678
same,CC50,in vitro,> 100000 nM
same,remaining activity at 0.0152416 µM,WT MeV L-P complexes; 0.0152416 µM,92.5%
same,remaining activity at 0.0457247 µM,WT MeV L-P complexes; 0.0457247 µM,96.8%
same,remaining activity at 0.137174 µM,WT MeV L-P complexes; 0.137174 µM,64.3%
same,remaining activity at 0.411523 µM,WT MeV L-P complexes; 0.411523 µM,40.5%
same,remaining activity at 1.23457 µM,WT MeV L-P complexes; 1.23457 µM,30.4%
same,remaining activity at 3.7037 µM,WT MeV L-P complexes; 3.7037 µM,30%
same,remaining activity at 11.1111 µM,WT MeV L-P complexes; 11.1111 µM,27.6%
same,remaining activity at 33.3333 µM,WT MeV L-P complexes; 33.3333 µM,26%
same,IC50 increase,[1],2.5 fold
same,3'-elongation after backpriming,MeV P-L complexes,equivalently dose-dependently blocked
same,binding to RSV polymerase,RSV L; BLI specificity control,No appreciable binding; also recorded: no binding was detected
same,steady-state BLI sensor response,RSV L; 0.003 uM,0.004459
same,steady-state BLI sensor response,RSV L; 0.009 uM,0.00801
same,steady-state BLI sensor response,RSV L; 0.027 uM,0.008695
same,steady-state BLI sensor response,RSV L; 0.24 uM,0.01534
same,steady-state BLI sensor response,RSV L; 0.74 uM,0.01342
same,steady-state BLI sensor response,RSV L; 2.22 uM,0.007742
same,steady-state BLI sensor response,RSV L; 6.67 uM,0.01053
same,steady-state BLI sensor response,RSV L; 20 uM,0.00593
same,MeV P mRNA levels,"[2]; 0.2 μM or 0.8 μM, 4 hours after infection, recMeV-Anc MOI 3",significantly decreased; also recorded: dose-dependently reduced
same,"Transcription gradient, H mRNA, Predicted (LS) mean 2",[2]; 0.2 µM,0.1422
same,"Transcription gradient, L mRNA, Predicted (LS) mean 2",[2]; 0.2 µM,0.005639
same,"Transcription gradient, P mRNA, Predicted (LS) mean 2",[2]; 0.2 µM,1.063
same,"Transcription gradient, H mRNA, Predicted (LS) mean 2",[2]; 0.8 µM,0.1249
same,"Transcription gradient, L mRNA, Predicted (LS) mean 2",[2]; 0.8 µM,0.007941
same,"Transcription gradient, P mRNA, Predicted (LS) mean 2",[2]; 0.8 µM,1.011
same,survival,[3],all treated animals survived
same,S5 A BLI sensorgram response,"MeV L full length; 0.003 µM, time 0 s",-0.0003139
same,S5 A BLI sensorgram response,"MeV L full length; 0.003 µM, time 0.2 s",-0.001098
same,S5 A BLI sensorgram response,"MeV L full length; 0.003 µM, time 0.4 s",-0.001645
same,S5 A BLI sensorgram response,"MeV L full length; 0.003 µM, time 0.6 s",-0.002393
same,S5 A BLI sensorgram response,"MeV L full length; 0.027 µM, time 0 s",0.0009777
same,S5 A BLI sensorgram response,"MeV L full length; 0.027 µM, time 0.2 s",0.001373
same,S5 A BLI sensorgram response,"MeV L full length; 0.027 µM, time 0.4 s",0.001785
same,S5 A BLI sensorgram response,"MeV L full length; 0.027 µM, time 0.6 s",0.001728
same,S5 A BLI sensorgram response,"MeV L full length; 0.08 µM, time 0 s",0.003123
same,S5 A BLI sensorgram response,"MeV L full length; 0.08 µM, time 0.2 s",0.003018
same,S5 A BLI sensorgram response,"MeV L full length; 0.08 µM, time 0.4 s",0.00257
same,S5 A BLI sensorgram response,"MeV L full length; 0.08 µM, time 0.6 s",0.002431
same,S5 A BLI sensorgram response,"MeV L full length; 0.74 µM, time 0 s",0.002177
same,S5 A BLI sensorgram response,"MeV L full length; 0.74 µM, time 0.2 s",0.002548
same,S5 A BLI sensorgram response,"MeV L full length; 0.74 µM, time 0.4 s",0.002706
same,S5 A BLI sensorgram response,"MeV L full length; 0.74 µM, time 0.6 s",0.002805
same,S5 A BLI sensorgram response,"MeV L full length; 2.22 µM, time 0 s",0.01086
same,S5 A BLI sensorgram response,"MeV L full length; 2.22 µM, time 0.2 s",0.01025
same,S5 A BLI sensorgram response,"MeV L full length; 2.22 µM, time 0.4 s",0.009623
same,S5 A BLI sensorgram response,"MeV L full length; 2.22 µM, time 0.6 s",0.009062
same,S5 D BLI response versus compound conc.,MeV L full length; compound conc. 0.003 uM,0.005655
same,S5 D BLI response versus compound conc.,MeV L full length; compound conc. 0.027 uM,0.009916
same,S5 D BLI response versus compound conc.,MeV L full length; compound conc. 0.08 uM,0.008265
same,S5 D BLI response versus compound conc.,MeV L full length; compound conc. 0.74 uM,0.01334
same,steady-state BLI sensor response,MeV L full length; 0.003 uM,0.006846
same,steady-state BLI sensor response,MeV L full length; 0.027 uM,0.008208
same,steady-state BLI sensor response,MeV L full length; 0.08 uM,0.009438
same,steady-state BLI sensor response,MeV L full length; 0.74 uM,0.01375
same,steady-state BLI sensor response,MeV L full length; 6.67 uM,0.01276
same,steady-state BLI sensor response,MeV L full length; 20 uM,0.01504
same,EC50,MeV,200 nM
same,"MeV inhibition, normalized reporter signal (Figure 5B)",MeV; cpd concentration 0.009145,105.005 and 86.0196
same,"MeV inhibition, normalized reporter signal (Figure 5B)",MeV; cpd concentration 0.027435,126.572 and 81.3143
same,"MeV inhibition, normalized reporter signal (Figure 5B)",MeV; cpd concentration 0.082305,101.803 and 75.4494
same,"MeV inhibition, normalized reporter signal (Figure 5B)",MeV; cpd concentration 0.246914,43.9689 and 25.1431
same,"MeV inhibition, normalized reporter signal (Figure 5B)",MeV; cpd concentration 0.740741,3.4563 and 3.061
same,"MeV inhibition, normalized reporter signal (Figure 5B)",MeV; cpd concentration 2.22222,0.8619 and 1.175
same,"MeV inhibition, normalized reporter signal (Figure 5B)",MeV; cpd concentration 6.66667,0.4673 and 0.8278
same,increase in IC50 value,[4],24 fold
